According to US20210147455A1 (SHAANXI SYNTHETIC PHARMACEUTICAL CO., LTD., priority 2018, published 2021):

How the values were obtained:
[1] = Hygroscopicity study (Chinese Pharmacopoeia 2015, 9103); type: physicochemical; settings: for Hygroscopic weight gain: 25° C.±1° C., saturated ammonium chloride solution, 24 hours; for Conclusion (hygroscopicity): after 24 hours
Method: Test method: • 1. A dried glass weighing bottle with stopper (having an outer diameter of 50 mm and a height of 15 mm) was placed in a thermostatic drier (a saturated ammonium chloride solution was placed on the lower part of the thermostatic drier) at an appropriate temperature of 25° C.±1° C. on the day earlier before the test, and the weight (m1) of weighing bottle was precisely weighed. • 2. An appropriate amount of test sample was taken and spread in the weighing bottle, and the thickness of the test sample was controlled to about 1 mm, and the weight (m2) was precisely weighed. • 3. The weighing bottle was opened and was placed, together with the bottle cap, under the above mentioned constant temperature and humidity condition for 24 hours. • 4. The weighing bottle was capped and precisely weighed to obtain the weight (m3).
Description of hygroscopicity characterization and delimitation of hygroscopicity weight gain: Deliquescence: enough moisture is absorbed to form a liquid. […] Slightly hygroscopic: hygroscopic weight gain is less than 2% but not less than 0.2%. Not or hardly hygroscopic: hygroscopic weight gain is less than 0.2%.

[2] = Stability experiments under 25° C.±2° C. and 65% R.H±5% R.H; settings: 25° C./65% R.H
From the text: • 1. […] The results are shown in detail in the following table.

[3] = Stability experiments under 40° C.±2° C. and 75% R.H±5% R.H (accelerated test); type: physicochemical; settings: 40° C./75% R.H

Compound | Hygroscopic weight gain [1] [%] | Conclusion (hygroscopicity) [1] | Content ([2]; month 0) [%] | Description ([2]; month 0) | Related substance ([2]; month 0) [%] | Content ([3]; month 0) [%] | Description ([3]; month 0) | Related substance ([3]; month 0) [%] | Content ([3]; month 1) [%] | Description ([3]; month 1) | Related substance ([3]; month 1) [%] | Content ([3]; month 2) | Description ([3]; month 2) | Related substance ([3]; month 2) [%] | Content ([3]; month 3) [%] | Description ([3]; month 3) | Related substance ([3]; month 3) [%] | Content ([3]; month 6) [%] | Description ([3]; month 6) | Related substance ([3]; month 6) [%] | also measured
CC[C@@H]([C@H](C)OP(=O)(O)O)n1ncn(-c2ccc(N3CCN(c4ccc(OC[C@@H]5CO[C@@](Cn6cncn6)(c6ccc(F)cc6F)C5)cc4)CC3)cc2)c1=O.CNC[C@H](O)[C@@H](O)[C@H](O)[C@H](O)CO [Comparative Example 4, Posaconazole Phosphate Monomeglumine Salt] | 0.88 | Slight hygroscopicity | 99.87 | White | 0.13 | 99.87 | White | 0.13 | 99.73 | White | 0.27 | 99.62% | White | 0.38 | 99.50 | White | 0.50 | 99.36 | White | 0.64 | Content ([2]; month 3): 99.81%; Description ([2]; month 3): White; Related substance ([2]; month 3): 0.19%; Content ([2]; month 6): 99.69%; Description ([2]; month 6): White; Related substance ([2]; month 6): 0.31%; Content ([2]; month 9): 99.57%; Description ([2]; month 9): White; Related substance ([2]; month 9): 0.43%; Content ([2]; month 12): 99.50%; Description ([2]; month 12): White; Related substance ([2]; month 12): 0.50%; Content ([2]; month 24): 98.98%; Description ([2]; month 24): White; Related substance ([2]; month 24): 1.02%
CC[C@@H]([C@H](C)OP(=O)([O-])[O-])n1ncn(-c2ccc(N3CCN(c4ccc(OC[C@@H]5CO[C@@](Cn6cncn6)(c6ccc(F)cc6F)C5)cc4)CC3)cc2)c1=O.C[N+](C)(C)CCO.C[N+](C)(C)CCO [Comparative Example 1, Posaconazole Phosphate Bicholinate] | 8.76 |  | 99.87 | White | 0.13 | 99.87 | White | 0.13 | 99.86 | White | 0.14 | 99.84% | White | 0.16 | 99.80 | White | 0.20 | 99.65 | White | 0.35 | Content ([2]; month 3): 99.86%; Description ([2]; month 3): White; Related substance ([2]; month 3): 0.14%; Content ([2]; month 6): 99.81%; Description ([2]; month 6): White; Related substance ([2]; month 6): 0.19%; Content ([2]; month 9): 99.77%; Description ([2]; month 9): White; Related substance ([2]; month 9): 0.23%; Content ([2]; month 12): 99.61%; Description ([2]; month 12): White; Related substance ([2]; month 12): 0.31%; Content ([2]; month 24): 99.22%; Description ([2]; month 24): White; Related substance ([2]; month 24): 0.78%
Posaconazole Phosphate Monopotassium Salt Trihydrate [Comparative Example 6] | 1.95 | Slight hygroscopicity | 99.87 | White | 0.13 | 99.87 | White | 0.13 | 99.76 | White | 0.24 | 99.65% | White | 0.35 | 99.49 | White | 0.51 | 99.38 | White | 0.62 | Content ([2]; month 3): 99.78%; Description ([2]; month 3): White; Related substance ([2]; month 3): 0.22%; Content ([2]; month 6): 99.70%; Description ([2]; month 6): White; Related substance ([2]; month 6): 0.30%; Content ([2]; month 9): 99.59%; Description ([2]; month 9): White; Related substance ([2]; month 9): 0.41%; Content ([2]; month 12): 99.48%; Description ([2]; month 12): White; Related substance ([2]; month 12): 0.52%; Content ([2]; month 24): 99.00%; Description ([2]; month 24): White; Related substance ([2]; month 24): 1.00%
Posaconazole Phosphate Monosodium Salt [Comparative Example 8] | 1.92 | Slight hygroscopicity |  |  |  | 99.87 | White | 0.13 | 99.71 | White | 0.29 | 99,63% | White | 0.37 | 99.47 | White | 0.53 | 99.32 | White | 0.68 | 
